Results as given in patent US9040713B2, “Methods of managing blood sugar levels and compositions related thereto” (EMORY UNIVERSITY, priority 2010, dated 2015).

Key:
IR = IR (Mus musculus, UniProt P15208); experiment: IR signaling in differentiated 3T3-L1 adipocytes (immunoblotting); format: cell-based; set-up: endogenous in cells; host or cells: differentiated 3T3-L1 adipocytes; settings: for IR phosphorylation: 5 nM; for ERK phosphorylation after IR knockdown / Akt and ERK phosphorylation after IR knockdown: siRNA against IR; for ERK phosphorylation after IR knockdown: insulin 100 nM 15 min or DDN 5 μM 30 min; for Akt and ERK phosphorylation after IR knockdown: 5 μM 4524-E7 or insulin 100 nM
Sequence of IR (P15208 28-1372): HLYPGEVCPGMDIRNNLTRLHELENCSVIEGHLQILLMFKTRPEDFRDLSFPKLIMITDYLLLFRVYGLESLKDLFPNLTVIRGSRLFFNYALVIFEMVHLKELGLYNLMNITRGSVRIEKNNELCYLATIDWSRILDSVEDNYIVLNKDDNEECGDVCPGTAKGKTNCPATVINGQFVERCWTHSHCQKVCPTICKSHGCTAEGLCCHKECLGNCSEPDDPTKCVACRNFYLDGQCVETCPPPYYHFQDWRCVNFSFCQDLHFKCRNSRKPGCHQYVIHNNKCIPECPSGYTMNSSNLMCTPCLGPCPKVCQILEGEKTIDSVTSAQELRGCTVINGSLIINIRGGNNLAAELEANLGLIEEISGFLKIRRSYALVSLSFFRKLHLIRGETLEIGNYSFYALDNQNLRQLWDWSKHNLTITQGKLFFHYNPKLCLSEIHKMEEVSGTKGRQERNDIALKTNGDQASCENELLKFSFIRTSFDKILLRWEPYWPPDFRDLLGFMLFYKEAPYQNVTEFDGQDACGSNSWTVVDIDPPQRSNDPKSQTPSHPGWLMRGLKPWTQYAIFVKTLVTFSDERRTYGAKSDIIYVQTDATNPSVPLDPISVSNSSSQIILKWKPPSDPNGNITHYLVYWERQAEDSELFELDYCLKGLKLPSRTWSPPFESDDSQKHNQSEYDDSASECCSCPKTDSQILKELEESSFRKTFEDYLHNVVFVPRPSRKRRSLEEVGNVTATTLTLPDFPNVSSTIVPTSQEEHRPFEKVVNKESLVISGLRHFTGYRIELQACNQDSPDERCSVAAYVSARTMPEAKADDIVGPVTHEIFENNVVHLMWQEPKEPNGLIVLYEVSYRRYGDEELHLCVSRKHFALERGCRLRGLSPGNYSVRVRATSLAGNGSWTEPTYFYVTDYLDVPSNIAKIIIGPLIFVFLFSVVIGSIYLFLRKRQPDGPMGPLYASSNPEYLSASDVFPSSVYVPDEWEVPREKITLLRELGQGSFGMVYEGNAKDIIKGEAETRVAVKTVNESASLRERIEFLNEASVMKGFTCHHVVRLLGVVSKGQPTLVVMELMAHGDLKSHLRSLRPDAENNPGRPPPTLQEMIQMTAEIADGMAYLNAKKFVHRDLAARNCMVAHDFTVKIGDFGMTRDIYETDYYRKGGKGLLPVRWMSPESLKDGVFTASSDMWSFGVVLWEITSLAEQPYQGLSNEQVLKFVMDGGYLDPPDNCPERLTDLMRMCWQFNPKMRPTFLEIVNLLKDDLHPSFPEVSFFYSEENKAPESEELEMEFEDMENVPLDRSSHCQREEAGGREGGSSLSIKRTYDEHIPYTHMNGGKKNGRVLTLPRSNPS
Method: (§1) Insulin signaling in the cell lysates were tested by immunoblotting. (B) DDN stimulates glucose uptake. […] [3H]2-deoxyglucose was then added, and the cells were further incubated for 10 min. [3H]2-deoxyglucose uptake by adipocytes was measured by scintillation counting (*: P<0.05 **: P<0.01 vs control, Student's t-test, n=3). (C) DDN synergizes insulin's signaling. […] Cell lysates were then prepared for Western blot using specific antibodies as indicated. […] 3H-2-deoxyglucose was then added, and the cells were further incubated for 10 min. 3H-2-deoxyglucose uptake by adipocytes was measured by scintillation counting (*: P<0.05; **: P<0.01, Student's t-test, n=3). (E) IR is necessary for DDN to induce ERK phosphorylation. Differentiated 3T3-L1 adipocytes were transfected with control siRNA or siRNA against IR. […] Cell lysates were analyzed by Western blot. (F) The glucose uptake induced by DDN in p85α knockout MEF cells. […] The uptake of 3H-2-deoxyglucose was monitored by liquid scintillation counting (*: P<0.05; **: P<0.01 vs control, Student's t-test, n=3).
(A) 4524-E7 activates IR phosphorylation and its downstream signaling in 3T3-L1 adipocytes. […] The cells were lysed, and immunoprecipitated with PY20, and followed by Western blot using specific antibodies. (B) 4524-E7 stimulates glucose uptake in 3T3-L1 adipocytes. […] [3H]2-deoxyglucose was added, and the cells were further incubated for 10 min. The amount of [3H]2-deoxyglucose taken by adipocytes was measured. (C) 4524-E7 inhibits fatty acid oxidation. […] Results were normalized to DMSO-treated cells and expressed as mean±S.E.M. (*: P<0.05; **:P<0.01, Student's t-test, n=3). (D) IR knockdown in adipocytes decreases IR signaling by 4524-E7. […] Cells lysates were collected and analyzed by Western blot. (E) The glucose uptake induced by 4524-E7 in p85α knockout MEF cells. […] The uptaken [3H] 2-deoxyglucose was monitored by liquid scintillation counter. Results were expressed as mean±S.E.M. (*: P<0.05; **:P<0.01, Student's t-test, n=3). […]

GST-IRTK = biological target: T1, GST-IRTK (Homo sapiens, UniProt P06213); experiment: IR in vitro kinase assay (histone H2B phosphorylation); format: biochemical; settings: different concentrations of compound
T1 construct: GST-tagged IRTK (GST-IRTK, a.a. 1011-1382); purchased Invitrogen
T1 sequence (P06213 1011-1382): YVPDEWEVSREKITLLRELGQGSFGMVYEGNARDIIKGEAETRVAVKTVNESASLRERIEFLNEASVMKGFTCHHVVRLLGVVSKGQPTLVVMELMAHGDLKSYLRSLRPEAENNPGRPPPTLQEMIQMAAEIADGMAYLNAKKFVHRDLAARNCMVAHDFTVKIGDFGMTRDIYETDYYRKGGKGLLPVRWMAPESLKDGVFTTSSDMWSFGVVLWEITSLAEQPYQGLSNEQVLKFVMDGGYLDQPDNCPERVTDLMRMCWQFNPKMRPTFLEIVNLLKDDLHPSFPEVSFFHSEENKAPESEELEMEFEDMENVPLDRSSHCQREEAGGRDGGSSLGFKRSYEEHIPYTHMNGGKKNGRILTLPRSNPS
Method: Parental CHO cells were used as a negative control (bottom panel). The fluorescence-labeled cells were analyzed on flow cytometry. (B) DDN binds to IRTK. UV-visible spectra were scanned from 200 to 800 nm for IRTK fragment in the presence of DDN or its analogue. When DDN binds to IRTK, it elicits the absorption alteration at 560 and 602 nm. (C) DDN protects IRTK from proteolysis. GST-IRTK was subjected to limited trypsin digestion in the presence of DDN (50 μM), ATP-γ-S (5 μM) or both. The reaction mixture was resolved by SDS-PAGE, followed by silver staining (D) DDN increases IRTK activity in vitro.
Parental CHO cells were used as a negative control (Bottom panel). The fluorescence-labeled cells were analyzed on flow cytometry. (B) 4524-E7 protects IRTK from proteolysis. GST-IRTK was subjected to limited trypsin or chymotrypsin digestion in the presence of 4524-E7 (50 μM), ATPyS (5 μM) or both at 37° C. for 5 min. The reaction mixture was resolved by SDS-PAGE, followed by silver staining Cleaved fragments were asterisked. (C) 4524-E7 increases IRTK activity in vitro. Recombinant GST-IRTK, GST-IGFRTK, and GST-EGFRTK were incubated with different concentrations of 4524-E7 or 10 μM 2—NH2-NQ and the kinase activity was examined by monitoring the phosphorylation of histone H2B. (E) In vitro kinase activity of various IRTK/IGF-1R kinase hybrids. The GFP-tagged kinases were expressed in HEK293, immunoprecipitated and incubated with different concentrations of 4524-E7 as indicated. […] Expressions of the kinases were also verified (lower panel).
Recombinant GST-IRTK was incubate with 50 mM tris-HCl (pH7.4), 10 mM MgCl2, and 50 μM ATP with different concentration of compound for 15 min at 25° C. Histone H2B (0.35 μg/ml) and [γ32P]ATP (0.25 μCi/ul) were added and the samples were further incubated for 10 min. The sample was separated on a SDS-polyacrylamide gel and autoradiographed.

3T3-L1 adipocytes = experiment: [3H] 2-deoxyglucose transport in 3T3-L1 adipocytes; format: cell-based, mouse; settings: for glucose uptake after depletion of IR: siRNA against IR
Method: NIH 3T3-L1 preadipocytes and MEFs were grown in standard media. MEF were continuously passed in standard media to generate spontaneously immortalizedfibroblasts. […] 3T3-L1 adipocytes were reseeded into 12-well plates 10 to 12 days after differentiation. […] The transport reaction was initiated by adding 2-deoxyglucose (final 100 uM) with [3H] 2-deoxyglucose (0.2 μCi/well). After a 10 min incubation period, cells were washed three times with ice-cold PBS, solubilized in 1% SDS, 1M NaOH. After neutralization, radioactivity was measured by scintillation counting

p85α−/− MEF cells = experiment: [3H] 2-deoxyglucose transport in p85α knockout MEF cells; format: cell-based, mouse; settings: insulin 100 nM 15 min or compound 5 μM 30 min
Method: as §1, with “phosphorylation.” for “phosphorylation. Differentiated 3T3-L1 adipocytes were transfected with control siRNA or siRNA against IR.”, “blot.” for “blot. (F) The glucose uptake induced by DDN in p85α knockout MEF cells.”
(A) 4524-E7 activates IR phosphorylation and its downstream signaling in 3T3-L1 adipocytes. […] The amount of [3H]2-deoxyglucose taken by adipocytes was measured. […] Results were normalized to DMSO-treated cells and expressed as mean±S.E.M. (*: P<0.05; **:P<0.01, Student's t-test, n=3). […] Cells lysates were collected and analyzed by Western blot. […] 2-deoxyglucose was monitored by liquid scintillation counter. Results were expressed as mean±S.E.M. (*: P<0.05; **:P<0.01, Student's t-test, n=3). […]

IR phosphorylation (IR; alone)	ERK phosphorylation after IR knockdown (IR)	Akt and ERK phosphorylation after IR knockdown (IR)	activation of endogenous IR (IR; different concentrations, 15 min, alone)	Compound	IR phosphorylation in combination with insulin (IR; 5 nM DDN plus 5 nM insulin)	IR and Akt activation (IR; DDN 0.1, 0.25, 0.5 μM, 30 min)	IRTK kinase activity (histone H2B phosphorylation) (GST-IRTK)	glucose uptake in combination with insulin (3T3-L1 adipocytes; 5 nM DDN plus 5 nM insulin)	3H-deoxyglucose uptake (3T3-L1 adipocytes; DDN 0.1, 0.25, 0.5 μM, 30 min)	3H-deoxyglucose uptake (3T3-L1 adipocytes; 5 nM, alone)	glucose uptake after depletion of IR (3T3-L1 adipocytes)	[3H]-2-deoxyglucose uptake (p85α−/− MEF cells)	IR, Akt and Erk1/2 phosphorylation in combination with insulin (IR; 4524-E7 plus 10 nM insulin)	glucose uptake as compared to control (3T3-L1 adipocytes; 5 μM, 30 min)	lowest concentration significantly elevating glucose uptake (3T3-L1 adipocytes; 30 min) [µM]	glucose uptake in combination with insulin (3T3-L1 adipocytes; 4524-E7 plus 10 nM insulin, versus the two agents alone)
did not induce any IR activation	reduced when IR was depleted			CC(=O)Oc1ccc(OC(C)=O)c2c1C(=O)C(Cl)=C(Cl)C2=O [DDN, 5,8-diacetyloxy-2,3-dichloro-1,4-naphthoquinone]	higher than those observed when insulin or DDN was administrated separately	elicited a dose-dependent IR and Akt activation	activated the recombinant IRTK to phosphorylate histone H2B	further increased	escalated 3H-deoxyglucose uptake in a dose-dependent manner							
able to trigger IR phosphorylation	reduced when IR was depleted	also reduced		insulin: insulin, used as positive control						significantly increased	substantially diminished	neither insulin nor 4524-E7 was able to induce glucose uptake				
		also reduced	could activate the endogenous IR	O=C1c2ccccc2C(=O)C2SC(Nc3ccc(Cl)cc3)=NC12 (stereo not shown) [4524-E7, 2-((4-chlorophenyl)amino)naphtho[2,3-d]thiazole-4,9(3aH,9aH)-dione]			greatly enhanced				substantially diminished	neither insulin nor 4524-E7 was able to induce glucose uptake	much more robust IR, Akt and Erk1/2 phosphorylation than insulin or 4524-E7 alone	nearly quadrupled	1	additively escalated
